These results are taken from patent US20090264528A1, “SERINE PALMITOYLCOA TRANSFERASE (SPT) INHIBITION BY MYRIOCIN OR GENETIC DEFICIENCY DECREASES CHOLESTEROL ABSORPTION” (The Research Foundation of State University of New York, priority 2008, published 2009).

One test has as its system ABCG5. Briefly: Western blot of small intestine homogenates, ABCG5. Particulars: WT and apoE KO mice, compared with nontreated animals. Format: in vivo, mouse. As to the method: (§1) FIG. 8 depicts that SPT deficiency decreased NPC1L1 and ABCA1, and increased ABCG5 in mouse small intestine. Tissue homogenates were prepared as described in Methods, and equal amounts of homogenates from each mouse were pooled in each group (n=5). A total of 50 microg pooled sample from each group was immunoblotted with antibodies against NPC1L1, ABCA1, and ABCG5. Immunoblots of beta (β)-actin were used as a loading control.
(§2) Preparation and Western blot analysis of small intestine homogenates: A total of 50-100 mg of small intestine sample was homogenized and lysed proteins were immunoblotted, as previously described, (3) with a polyclonal rabbit antihuman NPC1L1 antiserum 69B, a polyclonal rabbit antimouse ABCG5 antiserum, a polyclonal antimouse ABCA1 antibody, and a monoclonal mouse anti-(beta)β-actin antibody.
(§3) Next, Western blot measurements of NPC1L1 and ABCG5/G8 were completed, where the measurement were located in apical membranes of the enterocytes. […] Also, ABCA1 was measured, which is located in the basal membranes of the enterocytes and is involved in cholesterol secretion.
Background: In western blotting, separated proteins are transferred to a membrane and probed.

The next test has as its system ABCA1. Briefly: Western blot of small intestine homogenates, ABCA1. Format: in vivo, mouse. Particulars: SPT-deficient small intestines (myriocin-treated, FIG. 6A) compared with controls. As to the method:
as §1, §2, §3

Test [1] deals with cholesterol absorption. Briefly: Absorption of [14C]cholesterol after a single gavage (intestine, liver, bile, plasma). Format: in vivo, mouse. Particulars: 24 hours after single gavage, mean ± SD, n=5. As to the method:
Cholesterol absorption studies: A classical fecal dual-isotope ratio method was used for the cholesterol absorption study. Briefly, a mixture of [^14C]-labeled (0.1 microCi) and unlabeled cholesterol (0.5 mg) and [^3H]sitostanol (0.2 microCi) in 15 microl of olive oil was fed to mice (10-12 weeks old). Feces were collected for 24 hours. The cholesterol absorption ratio was calculated as: % absorption={1−[fecal(^14C/^3H)]/administered(^14C/^3H)}×100. In some cases, mice were sacrificed, plasma collected, and radioactivity counted. Small intestines (from duodenum to ileum) were washed and cut into 2 cm segments. Each of these, as well as a part of the liver, were digested and radioactivity counted individually.
Next, the amounts of [^14C]cholesterol present in the intestine and those transported to plasma, liver, and bile in 24 hours were measured after a single bolus of radiolabeled cholesterol.

The next test concerns primary enterocyte. Briefly: Cholesterol and oleic acid uptake by primary enterocytes. Format: cell-based, mouse. As to the method:
FIGS. 6A-D depict several graphs that illustrate that SPT deficient enterocytes absorb less cholesterol than controls. Enterocytes were isolated from mice (n=4, 12-14 weeks old) and resuspended in 4 ml of DMEM containing 0.05 microCi/ml of either [^14C]cholesterol (FIGS. 6A and 6C) or [^3H]oleic acid (FIGS. 6B and 6D). Enterocytes (100 microl) were collected at 5, 10, and 20 minutes, washed twice with DMEM, and cellular radioactivity was determined. The amounts of lipids were normalized to protein and plotted against time. FIGS. 6A and 6B, WT vs WT/myriocin; FIGS. 6C and 6D, WT vs Sptlc1^+/−, Values are mean±SD. *P<0.01.
Cholesterol uptake by primary enterocyte: The enterocyte cholesterol uptake study was carried out as disclosed in: Iqbal J, Hussain M M. Evidence for multiple complementary pathways for efficient cholesterol absorption in mice. J Lipid Res. 2005; 46:1491-1501, which is incorporated herein by reference in its entirety.
For further confirmation of the above in vivo observations, enterocytes were isolated from myriocin-treated or Sptlc1^+/− mice, as well as controls, incubated with radiolabeled cholesterol for varying times, and the cellular radioactivity was determined. […] Experiments were performed to study the uptake of [^3H]oleic acid.

Test [2] concerns cholesterol absorption. Briefly: Blood [14C]-cholesterol within 24 hours after a single gavage. It counts as in vivo, mouse. As to the method:
FIGS. 5A-I depict several graphs that illustrate that SPT deficient mice absorbed less cholesterol. Mice (n=6, 10-12 weeks old) were fasted for 5 hours and gavaged with 0.1 microCi [^14C]cholesterol and 0.2 microCi [^3H]sitostanol with 0.5 mg unlabeled cholesterol dissolved in 15 microl of olive oil. Feces were collected after 24 hours and lipids were extracted for counting (FIGS. 5A, 5D, and 5G, cholesterol absorption, WT vs WT/myriocin; apoE KO vs apoE KO/myriocin; WT vs Sptlc1^+/−, respectively). Blood was collected during the 24 hour period (Panels B, E, and H, [^14C]cholesterol in blood, WT vs WT/myriocin; apoE KO vs apoE KO/myriocin; WT vs Sptlc1^+/−, respectively). To test specificity, the mice were gavaged with 0.2 microCi [^3H]triolein together with 0.5 mg/ml cold cholesterol. Blood was collected during the 24 hour period (FIGS. 5C, 5F, and 5I, [^3H] glycerolipids in blood, WT versus WT/myriocin; apoE KO versus apoE KO/myriocin; WT versus Sptlc1^+/−, respectively). Value is mean±SD. *P<0.01.
This confirmed that there was defective cholesterol absorption in these animals.

Structures are written as SMILES.

`CCCCCCC(=O)CCCCCC/C=C/C[C@@H](O)[C@H](O)[C@@](N)(CO)C(=O)O` [Myriocin, myriocin]: the “ABCG5 protein mass in small intestine” value in the test on ABCG5 is reported as “increased”. Moreover, the “ABCA1 protein in small intestine” value in the test on ABCA1 is on record as “decreased”. Besides, in the test on cholesterol absorption [1] (ApoE KO mice), the “[14C]cholesterol in Bile” value is 2284 ± 521 dpm/ml, the “[14C]cholesterol in Intestine” value is 4158 ± 499 dpm/g, the “[14C]cholesterol in Liver” value amounted to 3337 ± 649 dpm/g and the “[14C]cholesterol in Plasma” value worked out at 1350 ± 142 dpm/ml. In addition, in the test on cholesterol absorption [1] (WT mice), the “[14C]cholesterol in Bile” value is reported as 2108 ± 394 dpm/ml, the “[14C]cholesterol in Intestine” value is reported as 5237 ± 478 dpm/g, the “[14C]cholesterol in Liver” value is on record as 4131 ± 575 dpm/g and the “[14C]cholesterol in Plasma” value was determined as 1734 ± 390 dpm/ml. In the test on primary enterocyte (enterocytes isolated from myriocin-treated mice), the “uptake of [3H]oleic acid vs controls” value was “No significant changes”. Besides, in the test with primary enterocyte (enterocytes isolated from myriocin-treated mice, 5, 10, 20 minutes), the “radiolabeled cholesterol uptake (cellular radioactivity) vs controls” value is “significantly less radioactivity”. The “[14C]-cholesterol in the circulation vs controls” value with cholesterol absorption [2] (myriocin-treated WT mice) is “significantly less”. Also, the “[14C]-cholesterol in the circulation vs controls” value in the test on cholesterol absorption [2] (myriocin-treated apoE KO mice) is on record as “significantly less”.
